Results on one compound are retold here after patent US11192900B2, “Substituted 1,6-dihydropyridinones and 1,2-dihydroisoquinolinones as bet inhibitors” (NUVATION BIO INC., priority 2018, dated 2021).

For assay [1], the target named is BRD3-2 (Homo sapiens (Human), UniProt Q15059). Briefly: Bromodomain and Extraterminal Domain (BET) Binding Assay. The method, boiled down:
(§1)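 AlphaScreen displacement of biotinylated H4 (1-21) K5/8/12/16Ac peptide, in 50 mM HEPES pH 7.5, 100 mM NaCl, 1 mg/ml BSA, 0.05% CHAPS, 0.5% DMSO. Protein-compound preincubation 30 min RT, then ligand 30 min, donor then acceptor beads 60 min dark. Inhibition versus plate controls; IC50 from 10-point titrations.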

Assay [2] has as its target BRD2-1 (Homo sapiens (Human), UniProt P25440). The description is as above. The method, boiled down:
as §1

For assay [3], the target named is BRD3-1 (Homo sapiens (Human), UniProt Q15059). Described as above. In short, it runs like this: as §1
For assay [4], the target named is BRD4-1 (Homo sapiens (Human), UniProt O60885). The description is as above. In short, it runs like this: as §1
Assay [5] has as its target BRD2-2 (Homo sapiens (Human), UniProt P25440). Described as above. In short, it runs like this: as §1
Assay [6] concerns the target BRD4-2 (Homo sapiens (Human), UniProt O60885). Described as above. In short, it runs like this: as §1
For assay [7], the target named is BRDT-1 (Homo sapiens (Human), UniProt Q58F21). The assay is described as above. The method, boiled down: as §1
In assay [8] the test system is 22Rv1 cells. Briefly: 22Rv1 cell proliferation assay with wash-off or mock wash-off. The assay is classed as cell-based, human. To be noted: Homo sapiens. On the procedure: A 22Rv1 cell proliferation assay was used to assess durability of test compound effects after transient exposure of test compound to cells. 22Rv1 cells were seeded at 3000 cells per well/100 μl in a 96-well plate and incubated with test compounds at specified dilutions for 2 hr at 37° C. and 5% CO2. Following the incubation, test compound was washed off and replacement culture medium without test compound was added. Wash-off was performed by three PBS washes. The cells were incubated for an additional 96 hr at 37° C. and 5% CO2. In parallel, a mock wash-off was performed with cells that were treated identically except that the replacement culture medium contained test compound. The plate was incubated for 4 hr at 37° C., 5% CO2 and fluorescence was measured using excitation and emission wavelengths of 535 and 590 nm, respectively. Cell viability data were plotted using GraphPad Prism (GraphPad Software, Inc., San Diego, Calif.). In addition, a nonlinear regression model with a sigmoidal dose response and variable slope within GraphPad Prism was used to calculate the IC50 value of individual test compounds.

In assay [9] the test system is SET-2. Briefly: Cell viability assay (XTT). In kind it is cell-based. Particulars: Homo sapiens; SET-2, XTT, up to 72 hr. On the procedure:
(§2) A panel of BET-sensitive and insensitive cell lines were profiled for effect on cell viability using compound 3. Cells were cultured in the presence of inhibitors at various concentrations for up to 72 hr. For cell viability assays as previously described (Guo Y, et al. 2012. J Hematol Oncol 5:72; Chen Y, et al. 2016. Oncogene 35:2971-8), 0.08 mg/ml XTT (2,3-bis-(2-methoxy-4-nitro-5-sulfophenyl)-2H-tetrazolium-5-carboxanilide) and 8 μM phenazine methyl sulfate (PMS) were added to the cells at the end of the test compound or vehicle treatment duration, and absorbance at 450 nm was measured after 3 hr incubation at 37° C. Assays were performed in triplicates. IC50 values were estimated using a non-linear mixed effect model fitting a sigmoid curve to the experimental dose response data (Vis D J, et al. 2016. Pharmacogenomics 17(7):691-700).

Assay [10] deals with HEL. Briefly: Cell viability assay (XTT). In kind it is cell-based. Particulars: Homo sapiens, up to 72 hr. On the procedure:
as §2
In general terms: Tetrazolium assays rely on reduction of a dye to a coloured formazan, in cell work by metabolically active cells.

Assay [11] deals with K562. Briefly: Cell viability assay (XTT). In kind it is cell-based. To be noted: Homo sapiens, up to 72 hr. On the procedure: as §2
For assay [12], the system named is MEG-01. Briefly: Cell viability assay (XTT). In kind it is cell-based. Particulars: Homo sapiens; MEG-01, XTT, up to 72 hr. On the procedure:
as §2

In assay [13] the test system is U2973. Briefly: Cell viability assay (XTT). The assay is classed as cell-based. Particulars: Homo sapiens, U-2973, up to 72 hr. On the procedure: as §2
Assay [14] relates to OCI-LY18. Briefly: Cell viability assay (XTT). The assay is classed as cell-based. To be noted: Homo sapiens, up to 72 hr. On the procedure:
as §2

Assay [15] concerns IEC-6 rat intestinal epithelial cell line. Briefly: IEC-6 cell viability, Protocol B (toxicity to non-cancerous cells). The assay is classed as cell-based. Particulars: Rattus norvegicus; IEC-6, 4000 cells per well, 48 hrs. On the procedure: The effects of test compounds were also studied in the IEC-6 rat intestinal epithelial cell line to assess potential toxicity to non-cancerous cells. The cells were harvested during the logarithmic growth period and counted. In Protocol A, cells were seeded at a count of 3000 cells per well/100 μl in a 96-well plate. After seeding, cells were incubated at 37° C., 5% CO2 for 24 hr. Cells were treated with test compounds at 8 concentrations within a desired concentration range (e.g. 5 nM-10 μM) for generation of dose response curves by preparing serial dilutions of the test compound in DMSO which were further diluted with culture medium and then added to each well. The plate was further incubated for another 96 hrs in humidified incubator at 37° C. and 5% CO2. The assay was terminated by addition of resazurin (# R7017, Sigma). The plate was incubated for 4 hr at 37° C., 5% CO2 and fluorescence was measured using excitation and emission wavelengths of 535 and 590 nm, respectively. Cell viability data were plotted using GraphPad Prism (GraphPad Software, Inc., San Diego, Calif.). In addition, a nonlinear regression model with a sigmoidal dose response and variable slope within GraphPad Prism was used to calculate the IC50 value of individual test compounds. Protocol B was the same as Protocol A except that cells were seeded at a count of 4000 cells per well/100 μl in a 96-well plate, and the incubation with test compound was for 48 hrs instead of 96 hrs.

pIC50: −log10 of the molar value. Where two headings read alike, the source gives them in different places.

Sequence of BRD2-1 (P25440 74-180): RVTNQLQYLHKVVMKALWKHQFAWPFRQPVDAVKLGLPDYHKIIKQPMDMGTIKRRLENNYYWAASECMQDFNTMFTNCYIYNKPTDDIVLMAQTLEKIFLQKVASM
Sequence of BRD2-2 (P25440 344-453): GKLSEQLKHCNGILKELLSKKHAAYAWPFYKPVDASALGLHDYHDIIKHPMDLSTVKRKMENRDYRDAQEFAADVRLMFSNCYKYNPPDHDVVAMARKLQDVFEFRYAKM
Sequence of BRD3-1 (Q15059 34-140): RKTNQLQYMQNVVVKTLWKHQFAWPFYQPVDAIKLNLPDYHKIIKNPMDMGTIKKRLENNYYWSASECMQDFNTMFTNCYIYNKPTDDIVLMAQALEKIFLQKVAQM
Sequence of BRD3-2 (Q15059 306-415): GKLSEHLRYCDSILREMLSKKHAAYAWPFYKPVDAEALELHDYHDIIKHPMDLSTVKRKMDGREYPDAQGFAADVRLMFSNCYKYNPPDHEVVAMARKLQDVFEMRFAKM

With `C=CS(=O)(=O)Nc1ccc(Oc2ccc(F)cc2F)c(-c2cc(NC)c(=O)n(C)c2)c1` [Compound 3, N-(4-(2,4-difluorophenoxy)-3-(1-methyl-5-(methylamino)-6-oxo-1,6-dihydropyridin-3-yl)phenyl)ethenesulfonamide], the negative logarithm of the IC50 (pIC50) (as a rule, −log10 of the IC50, conventionally taken in molar units) in [1] is 7.54; in assay [2], 7.80; in [3] it was 7.46; in assay [4] (Table 2, read-out: BET IC50 BRD4-1), 7.62; in [4] (Table 3, read-out: BRD4-1 IC50), 7.62; in [5] it was 7.92. The pIC50 in assay [6] (Table 2, read-out: BET IC50 BRD4-2) is 7.68; in assay [6] (Table 3, read-out: BRD4-2 IC50) it was 7.68; in assay [7] it was 7.51; in assay [8] (22Rv1, 2 hr exposure, three PBS washes, additional 96 hr without compound, read-out: Wash-off IC50), 7.02; in assay [8] (22Rv1, 2 hr, replacement medium with test compound, additional 96 hr, read-out: Mock wash-off IC50) it was 6.47; in [9], 7.05. The pIC50 is 6.40 in assay [10]; 5.30 in [11]; 6.51 in assay [12]; 6.62 in [13]; 6.38 in assay [14]; 6.76 in [15].
